Experimental data as given in patent publication US5773413A, “Method of combating mammalian neoplasias, and lytic peptides therefor” (Demeter Biotechnologies, Ltd., priority 1995, dated 1998).
Where a SMILES comes first, the peptide text is derived from it. [ ]: non-standard residue; d: D form. The star is where a group is joined. NMe2Phe = CN(C)[C@@H](Cc1ccccc1)C(=O)*; Lys(Me2) = CN(C)CCCC[C@H](N)C(=O)O

What was measured:
[1] = ALD evaluation, intramuscular administration in rat; type: in vivo
Method: (§1) In the following description, Riv=iv administration in rat, Rim=intramuscular administration in rat, Miv=iv administration in mouse, and Mim=intramuscular administration in mouse.
(§2) Lethality data and clinical observations were collected during the ALD evalution of the peptides denoted D5-F, DP-1, DP-1m. The data presented below are complete for D5-F and DP-1.
For D5F and DP1, two replicates were performed with rats. In the first replicate, the animals (one animal/dose) were exposed to a range of doses; 10.0, 1.0, 0.1, and 0.01 μM. The dose range used was smaller than that originally planned due to the availability of the compound to prepare an adequate amount of dosing solution.

[2] = ALD evaluation, iv administration in mouse; type: in vivo; conditions: for μg/dose (Miv), lethal dose / μmol Miv, lethal dose: iv administration in mouse; for [μM] T = 0, lethal concentration: second value of the cell (single value for D5-F), assigned to mouse iv because it fits μmol Miv; for Lethality, verification dosing / Lethality: mice; for Lethality, verification dosing: one animal previously exposed to 0.01 μM
Method: as §1, §2
(§3) For all three compounds, two replicates were performed with both mice and rats. In the first replicate, the animals (one animal/dose) were exposed to a range of doses, 10.0, 5.0, 2.5, 1.0, 0.5, 0.25, 0.1, 0.05, 0.025, and 0.01 μM. For the second replicate, the lethal dose was diluted to produce an intermediate dose between the lethal dose and the subsequent nonlethal dose.
Replicate 2: For D5F and DP1, the high dose was diluted to 7.5 μM for the second replicate. The doses administered were 7.5, 5.0, 1.0, 0.5, 0.25, 0.1, 0.05, 0.025, and 0.01 μM. D5F was lethal at 7.5 μM, whereas DP1 was not. DP1m was again not lethal to the mice over the treatment levels delivered.
The effects of the highest dose (lethal--D5F and DP1, nonlethal--DP1 m) were verified by dosing one animal with the effective or highest no effect concentration used in Replicate 1. In the case of D5F, the dose of 7.5 μM was used to verify lethality observed in Replicate 2. The mice treated with these compounds were previously exposed to the lowest dose 0.01 μM. The doses were the following: D5F, 7.5 μM; DP1, 10.0 μM; and DP1m, 10.0 μM.

[3] = ALD evaluation, iv administration in rat; type: in vivo; conditions: for [μM] T = 0, lethal concentration: first value of the cell, assigned to rat iv because it fits μmol Riv; for μg/dose (Riv), lethal dose / μmol Riv, lethal dose: iv administration in rat; for Lethality, verification dosing: 10.0 μM, one naive animal
Method: as §1, §2, §3
Replicate2: For all compounds, the high dose was diluted to 7.5 μM for the second replicate. The doses administered were 7.5, 5.0, 2.5, 1.0, 0.5. 0.25, and 0.1 μM. D5F, DP1, and DP1m were lethal at 7.5 μM and were not lethal at the lower doses.
The lethality of the high dose was verified by dosing one animal with the lethal dose determined by Replicate 1. The rats used for the evaluation were remaining from the original shipment and were naive for treatment. The doses were the following: D5F, 10.0 μM; DP1, 10.0 μM; and DP1m, 10.0 μM.

[4] = Solubility at the concentration required for im administration; type: physicochemical
[5] = iv, Replicate 1, lower concentrations (5.0 to 0.01 μM)
[6] = rats, iv, Replicate 1, lower concentrations
[7] = rats, iv, Replicate 2, lower doses (5.0 to 0.1 μM)

Structure (SMILES) | μg/dose (Rim), lethal dose [1] | μmol Rim, lethal dose [1] | μg/dose (Miv), lethal dose [2] [μg/dose] | μmol Miv, lethal dose [2] [µmol] | [μM] T = 0, lethal concentration [2] [µM] | [μM] T = 0, lethal concentration [3] [µM] | μg/dose (Riv), lethal dose [3] | μmol Riv, lethal dose [3] [µmol] | Lethality ([2]; iv, Replicate 1, 10.0 μM) | Lethality [2, 5] | Lethality, verification dosing ([3]; rats, iv) | Lethality ([3]; rats, iv, Replicate 1, 10.0 μM) | Lethality [3, 6] | Lethality ([3]; rats, iv, Replicate 2, 7.5 μM) | Lethality [3, 7] | Lethality, verification dosing ([2]; iv, 10.0 μM) | other results
CC[C@H](C)[C@H](NC(=O)[C@H](CCCCN)NC(=O)[C@H](CCCNC(=N)N)NC(=O)[C@H](C)NC(=O)[C@H](CC(C)C)NC(=O)[C@H](CCCCN)NC(=O)[C@H](CCCCN)NC(=O)[C@H](CC(C)C)NC(=O)[C@H](CCCNC(=N)N)NC(=O)[C@H](CCCNC(=N)N)NC(=O)CNC(=O)[C@@H](NC(=O)[C@H](CCCNC(=N)N)NC(=O)[C@H](CCCCN)NC(=O)[C@@H](NC(=O)[C@H](C)NC(=O)[C@H](CCCNC(=N)N)NC(=O)[C@H](CCCCN)NC(=O)[C@H](CCCNC(=N)N)NC(=O)[C@@H](N)CCCCN)C(C)C)C(C)C)C(=O)N[C@@H](C)C(=O)N[C@@H](CCCNC(=N)N)C(=O)N[C@@H](CC(C)C)C(=O)NCC(=O)N[C@H](C(=O)N[C@@H](C)C(=O)N[C@@H](Cc1ccccc1)C(=O)O)C(C)C [Peptide 13] (H-KRKRAVKRVGRRLKKLARKIARLGVAF-OH) | not lethal | not lethal | 158.72 | 0.05 | 2.5 | 2.0 | 1,269.78 μg/dose | 0.4 |  |  |  |  |  |  |  |  | 
CC[C@H](C)[C@H](NC(=O)[C@H](C)NC(=O)[C@H](CCCNC(=N)N)NC(=O)[C@H](CC(C)C)NC(=O)CNC(=O)[C@@H](NC(=O)[C@H](C)NC(=O)[C@@H](N)Cc1ccccc1)C(C)C)C(=O)N[C@@H](CCCCN)C(=O)N[C@@H](CCCNC(=N)N)C(=O)N[C@@H](C)C(=O)N[C@@H](CC(C)C)C(=O)N[C@@H](CCCCN)C(=O)N[C@@H](CCCCN)C(=O)N[C@@H](CC(C)C)C(=O)N[C@@H](CCCNC(=N)N)C(=O)N[C@@H](CCCNC(=N)N)C(=O)NCC(=O)N[C@H](C(=O)N[C@@H](CCCNC(=N)N)C(=O)N[C@@H](CCCCN)C(=O)N[C@H](C(=O)N[C@@H](C)C(=O)N[C@@H](CCCCN)C(=O)N[C@@H](CC(=O)O)C(=O)N[C@@H](CC(C)C)C(=O)O)C(C)C)C(C)C [Peptide 16] (H-FAVGLRAIKRALKKLRRGVRKVAKDL-OH) | not lethal | not lethal | 541.62 | 0.15 | 7.5 | 7.5 | 5,416.19 μg/dose | 1.5 | lethal | No lethality | dead within four hours | lethal | No lethality | lethal | not lethal |  | Lethality, verification dosing ([2]; iv, 7.5 μM): dead within four hours; Lethality ([2]; iv, Replicate 2, 7.5 μM): lethal; Clinical Observations ([3]; rats, iv, 2.5 and 5.0 μM, ends of tails later sloughed off): discoloration of the tail
CC(C)C[C@H](NC(=O)[C@H](C)NC(=O)[C@H](CCCCN)NC(=O)[C@H](CCCCN)NC(=O)[C@H](CC(C)C)NC(=O)[C@H](C)NC(=O)[C@H](CCCCN)NC(=O)[C@H](CCCCN)NC(=O)[C@H](CC(C)C)NC(=O)[C@H](CCCCN)NC(=O)[C@H](CCCCN)NC(=O)[C@H](CC(C)C)NC(=O)[C@H](C)NC(=O)[C@H](CCCCN)NC(=O)[C@H](CCCCN)NC(=O)[C@H](CC(C)C)NC(=O)[C@H](C)NC(=O)[C@H](CCCCN)NC(=O)[C@H](CC(C)C)NC(=O)[C@H](C)NC(=O)[C@H](CC(C)C)NC(=O)[C@H](C)NC(=O)[C@@H](N)Cc1ccccc1)C(=O)O [Peptide 19] (H-FALALKALKKALKKLKKALKKAL-OH) | not lethal | not lethal | 625.36 | 0.2 | 10.0 | 7.5 | 4,689.41 μg/dose | 1.5 | lethal | No lethality | dead within four hours | lethal | No lethality | lethal | not lethal | dead within four hours | 
CC(C)C[C@H](NC(=O)[C@H](C)NC(=O)[C@H](CCCCN(C)C)NC(=O)[C@H](CCCCN(C)C)NC(=O)[C@H](CC(C)C)NC(=O)[C@H](C)NC(=O)[C@H](CCCCN(C)C)NC(=O)[C@H](CCCCN(C)C)NC(=O)[C@H](CC(C)C)NC(=O)[C@H](CCCCN(C)C)NC(=O)[C@H](CCCCN(C)C)NC(=O)[C@H](CC(C)C)NC(=O)[C@H](C)NC(=O)[C@H](CCCCN(C)C)NC(=O)[C@H](CCCCN(C)C)NC(=O)[C@H](CC(C)C)NC(=O)[C@H](C)NC(=O)[C@H](CCCCN(C)C)NC(=O)[C@H](CC(C)C)NC(=O)[C@H](C)NC(=O)[C@H](CC(C)C)NC(=O)[C@H](C)NC(=O)[C@H](Cc1ccccc1)N(C)C)C(=O)O [Peptide 20] (NMe2Phe-ALAL[Lys(Me2)]AL[Lys(Me2)][Lys(Me2)]AL[Lys(Me2)][Lys(Me2)]L[Lys(Me2)][Lys(Me2)]AL[Lys(Me2)][Lys(Me2)]AL-OH) | not lethal | not lethal | 685.36 | 0.2 | 10.0 | 7.5 | 5,139.41 μg/dose | 1.5 | not lethal | No lethality | dead within four hours | lethal | No lethality | lethal | not lethal | dead within four hours | Lethality ([2]; iv, Replicate 2, over the treatment levels delivered): not lethal; Clinical Observations ([2]; mouse, iv, 10 μM, end of tail later sloughed off): discoloration of the tail; solubility [4]: poor solubility
